This test addresses hCRTH2 receptor (Homo sapiens (Human), UniProt Q9Y5Y4). Description: hCRTH2 receptor membranes radioligand (3H-PGD2) displacement assay. Type of test: binding. Conditions: 3H-PGD2 radioligand displacement, HEK293-hCRTH2 membranes. The protocol: Biological Assays: Preparation of hCRTH2 Receptor Membranes and Radioligand Displacement Assay:
First, recombinant HEK293-hCRTH2 cells were detached from culture plates into 5 ml buffer A/plate (Buffer A: 5 mM Tris, 1 mM MgCl2-6H2O pH=7.4) using a rubber policeman. Cells were then transferred into centrifugation tubes and centrifuged for 5 min at 400 g. The cell pellet was resuspended in the same buffer and tubes were frozen at −80° C. Cells were thawed and membrane fragments were generated by homogenization using a polytron homogenizer (30 seconds). The membrane fragments were then centrifuged at 3000 g for 20 minutes and resuspended in buffer C (Buffer C: 75 mM Tris, 25 mM MgCl2, 250 mM Saccharose pH 7.4). Aliquots of membrane fragments were stored at −20° C.
Binding assay was performed in a final assay volume of 250 μl. First, 25 μl of test compound, previously diluted in Binding-Buffer (Binding-Buffer: 50 mM Tris-Base, 100 mM NaCl, 1 mM EDTA, 0.1% BSA (protease free), 0.01% NaN3, 10 mM MnCl2, pH 7.0) was placed into each well. After addition of 75 μl Binding-Buffer, 50 μl of the radioligand ^3H-PGD2 (at 2.5 nM (220.000 dpm/well) from ANAWA ART0662) was added to each well. Binding assay was started by addition of 100 μl CRTH2 membrane fragments, reaching a final concentration of 20 μg/well. For non-specific binding, PGD2 was added to the reaction mixture to […] final concentration. This assay mix was incubated for 90 minutes at room temperature and then filtered through a GF/C filter 96-well plate which was pre-soaked for 3 hours in 0.5% polyethyleneimine (PEI). The filter-wells were washed three times with ice cold Binding-Buffer. Then, 40 μl of Microscint-40 (Packard) was added to each well and the retained radioactivity quantified in a Topcount (Packard).

Experimental findings from patent US9255090B2, “Heterocyclyl derivatives and their use as prostaglandin D2 receptor modulators” (Actelion Pharmaceuticals Ltd., priority 2012, dated 2016) are described below.

hCRTH2 receptor, sequence (Q9Y5Y4 whole entry, the tested form may be a part): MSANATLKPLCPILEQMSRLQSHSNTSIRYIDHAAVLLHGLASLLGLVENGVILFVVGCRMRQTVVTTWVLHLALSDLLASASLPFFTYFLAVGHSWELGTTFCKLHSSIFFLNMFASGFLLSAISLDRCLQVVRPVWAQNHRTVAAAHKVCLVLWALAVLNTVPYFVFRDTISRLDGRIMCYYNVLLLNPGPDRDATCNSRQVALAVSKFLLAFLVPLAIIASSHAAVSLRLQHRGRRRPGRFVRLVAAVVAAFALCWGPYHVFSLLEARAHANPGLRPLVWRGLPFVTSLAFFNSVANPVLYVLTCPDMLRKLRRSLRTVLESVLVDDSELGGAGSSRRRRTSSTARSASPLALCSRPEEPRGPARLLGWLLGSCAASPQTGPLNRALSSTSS

With `COc1cc(CC(=O)O)ccc1-c1ccc(F)c2c1CN(C(=O)[C@@H]1C[C@H]1c1ccccc1)CC2` [Example 184, {4-[5-Fluoro-2-((1R,2R)-2-phenyl-cyclopropanecarbonyl)-1,2,3,4-tetrahydro-isoquinolin-8-yl]-3-methoxy-phenyl}-acetic acid], the IC50 was 0.9 nM. Under `COc1ccc(CC(=O)O)cc1-c1ccc(F)c2c1CN(C(=O)CC(C)(C)C)CC2` [Example 129, {3-[2-(3,3-Dimethyl-butyryl)-5-fluoro-1,2,3,4-tetrahydro-isoquinolin-8-yl]-4-methoxy-phenyl}-acetic acid] stands 913 nM; under `COc1ccc(CC(=O)O)cc1-c1ccc(F)c2c1CCN(C(=O)CCOc1ccccc1)C2` [Example 102, {3-[8-Fluoro-2-(3-phenoxy-propionyl)-1,2,3,4-tetrahydro-isoquinolin-5-yl]-4-methoxy-phenyl}-acetic acid], 43 nM; under `COc1ccc(CC(=O)O)cc1-c1ccc(F)c2c1CN(C(=O)[C@@H]1C[C@H]1c1ccc(Cl)cc1)CC2` [Example 64, (3-{2-[(1R,2R)-2-(4-Chloro-phenyl)-cyclopropanecarbonyl]-5-fluoro-1,2,3,4-tetrahydro-isoquinolin-8-yl}-4-methoxy-phenyl)-acetic acid], 1.12 nM. Regarding `COc1cc(CC(=O)O)ccc1-c1ccc(F)c2c1CN(C(=O)CCN1CCc3ccccc31)CC2` [Example 191, {4-[2-(3-2,3-Dihydro-indol-1-yl-propionyl)-5-fluoro-1,2,3,4-tetrahydro-isoquinolin-8-yl]-3-methoxy-phenyl}-acetic acid], the concentration for half-maximal inhibition (IC50) was 2.42 nM.

`COc1ccc(CC(=O)O)cc1-c1ccc(F)c2c1CN(C(=O)CCN1CCCc3ccccc31)CC2` [Example 53, {3-[2-(3-3,4-Dihydro-2H-quinolin-1-yl-propionyl)-5-fluoro-1,2,3,4-tetrahydro-isoquinolin-8-yl]-4-methoxy-phenyl}-acetic acid] displayed an IC50 of 4.49 nM. Under `C[C@H](CC(=O)N1CCc2c(F)ccc(-c3cc(CC(=O)O)ccc3OCC(F)(F)F)c2C1)c1ccccc1` [Example 301, [3-[5-Fluoro-2-((R)-3-phenyl-butyryl)-1,2,3,4-tetrahydro-isoquinolin-8-yl]-4-(2,2,2-trifluoro-ethoxy)-phenyl]-acetic acid] stands 3.6 nM; under `CCOc1ccc(CC(=O)O)cc1-c1ccc(F)c2c1CN(C(=O)CCc1ncccc1OC)CC2` [Example 309, (4-Ethoxy-3-{5-fluoro-2-[3-(3-methoxy-pyridin-2-yl)-propionyl]-1,2,3,4-tetrahydro-isoquinolin-8-yl}-phenyl)-acetic acid], 32.3 nM; under `O=C(O)COc1ccc(F)cc1-c1cccc2c1CN(C(=O)OCc1ccccc1)CC2` [Example 173, 8-(2-Carboxymethoxy-5-fluoro-phenyl)-3,4-dihydro-1H-isoquinoline-2-carboxylic acid benzyl ester], 91.4 nM.

In the case of `CCOc1ccc(CC(=O)O)cc1-c1ccc(F)c2c1CN(C(=O)OCCOC)CC2` [Example 378, 8-(5-Carboxymethyl-2-ethoxy-phenyl)-5-fluoro-3,4-dihydro-1H-isoquinoline-2-carboxylic acid 2-methoxy-ethyl ester], the IC50 turned out to be 5.9 nM. In the case of `CC(CC(=O)N1CCc2c(F)ccc(-c3cc(CC(=O)O)ccc3OCC(F)(F)F)c2C1)c1ccccn1` (racemic) [Example 302] it was 8.1 nM.

As to `COc1ccc(CC(=O)O)cc1-c1ccc(F)c2c1CN(C(=O)CC1(c3ccc(F)cc3)CCC1)CC2` [Example 251, [3-(5-Fluoro-2-{2-[1-(4-fluoro-phenyl)-cyclobutyl]-acetyl}-1,2,3,4-tetrahydro-isoquinolin-8-yl)-4-methoxy-phenyl]-acetic acid], the IC50 was found to be 414 nM. `COc1ccc(CC(=O)O)cc1-c1ccc(Cl)c2c1CN(C(=O)CCn1ncc3ccccc31)CC2` [Example 72, {3-[5-Chloro-2-(3-indazol-1-yl-propionyl)-1,2,3,4-tetrahydro-isoquinolin-8-yl]-4-methoxy-phenyl}-acetic acid]: the IC50 was 37.8 nM. In the case of `O=C(O)Cc1cc(Cl)cc(-c2ccc(F)c3c2CN(C(=O)OCc2ccccc2)CC3)c1` [Example 19, 8-(3-Carboxymethyl-5-chloro-phenyl)-5-fluoro-3,4-dihydro-1H-isoquinoline-2-carboxylic acid benzyl ester] it was 20.2 nM; in that of `CCOc1ccc(CC(=O)O)cc1-c1ccc(F)c2c1CN(C(=O)CC(C)c1ccccc1F)CC2` (racemic) [Example 280], 3.4 nM; in that of `Cc1cccc(CCC(=O)N2CCc3c(F)ccc(-c4cc(CC(=O)O)ccc4OCC(F)(F)F)c3C2)n1` [Example 304, [3-{5-Fluoro-2-[3-(6-methyl-pyridin-2-yl)-propionyl]-1,2,3,4-tetrahydro-isoquinolin-8-yl}-4-(2,2,2-trifluoro-ethoxy)-phenyl]-acetic acid], 12.6 nM. `CCCc1ccc(CC(=O)O)cc1-c1ccc(F)c2c1CN(C(=O)OCc1ccccc1)CC2` [Example 215, 8-(5-Carboxymethyl-2-propyl-phenyl)-5-fluoro-3,4-dihydro-1H-isoquinoline-2-carboxylic acid benzyl ester] showed an IC50 of 3.6 nM.

`CCOc1ccc(CC(=O)O)cc1-c1ccc(F)c2c1CN(C(=O)NCc1ccccc1Cl)CC2` [Example 436, {3-[2-(2-Chloro-benzylcarbamoyl)-5-fluoro-1,2,3,4-tetrahydro-isoquinolin-8-yl]-4-ethoxy-phenyl}-acetic acid] registered an IC50 of 5.4 nM. Under `COc1ccc(CC(=O)O)cc1-c1ccc(F)c2c1CN(C(=O)CCC(=O)c1ccccc1)CC2` [Example 118, {3-[5-Fluoro-2-(4-oxo-4-phenyl-butyryl)-1,2,3,4-tetrahydro-isoquinolin-8-yl]-4-methoxy-phenyl}-acetic acid] stands 38.6 nM; under `O=C(O)Cc1ccc(-c2ccc(F)c3c2CN(C(=O)CC2CCOc4ccccc42)CC3)c(OCC(F)(F)F)c1` (racemic) [Example 285], 3.5 nM. Turning to `CCOc1ccc(CC(=O)O)cc1-c1ccc(F)c2c1CN(C(=O)NCc1ccccn1)CC2` [Example 449, (4-Ethoxy-3-{5-fluoro-2-[(pyridin-2-ylmethyl)-carbamoyl]-1,2,3,4-tetrahydro-isoquinolin-8-yl}-phenyl)-acetic acid], the IC50 is 14.2 nM. Under `CCOc1cc(CC(=O)O)ccc1-c1ccc(F)c2c1CN(C(=O)OCc1ccccn1)CC2` [Example 395, 8-(4-Carboxymethyl-2-ethoxy-phenyl)-5-fluoro-3,4-dihydro-1H-isoquinoline-2-carboxylic acid pyridin-2-ylmethyl ester] stands 3.7 nM; under `COc1ccc(CC(=O)O)cc1-c1ccc(F)c2c1CN(C(=O)[C@H](C)c1ccccc1)CC2` [Example 255, {3-[5-Fluoro-2-((R)-2-phenyl-propionyl)-1,2,3,4-tetrahydro-isoquinolin-8-yl]-4-methoxy-phenyl}-acetic acid], 981 nM; under `CC(C)Oc1ccc(CC(=O)O)cc1-c1ccc(F)c2c1CN(C(=O)CC1COc3ccccc31)CC2` (racemic) [Example 298], 1.2 nM. Under `COc1ccc(CC(=O)O)cc1-c1ccc(Cl)c2c1CN(C(=O)CCc1cn(C)c3ccccc13)CC2` [Example 75, (3-{5-Chloro-2-[3-(1-methyl-1H-indol-3-yl)-propionyl]-1,2,3,4-tetrahydro-isoquinolin-8-yl}-4-methoxy-phenyl)-acetic acid] stands 38.4 nM; under `Cc1cccc(CCC(=O)N2CCc3c(F)ccc(-c4cc(CC(=O)O)ccc4OC(C)C)c3C2)n1` [Example 295, (3-{5-Fluoro-2-[3-(6-methyl-pyridin-2-yl)-propionyl]-1,2,3,4-tetrahydro-isoquinolin-8-yl}-4-isopropoxy-phenyl)-acetic acid], 1.7 nM; under `CCOc1ccc(CC(=O)O)cc1-c1ccc(F)c2c1CN(C(=O)OCCC(C)(C)O)CC2` [Example 382, 8-(5-Carboxymethyl-2-ethoxy-phenyl)-5-fluoro-3,4-dihydro-1H-isoquinoline-2-carboxylic acid 3-hydroxy-3-methyl-butyl ester], 14 nM. In the case of `CCOc1ccc(CC(=O)O)cc1-c1ccc(F)c2c1CN(C(=O)O[C@H](C)c1ccccc1)CC2` [Example 364, 8-(5-Carboxymethyl-2-ethoxy-phenyl)-5-fluoro-3,4-dihydro-1H-isoquinoline-2-carboxylic acid (R)-1-phenyl-ethyl ester] it was 6 nM; in that of `COc1ccc(CC(=O)O)cc1-c1ccc(F)c2c1CN(C(=O)C1CC(=O)c3ccccc31)CC2` (racemic) [Example 122, (±)-{3-[5-Fluoro-2-(3-oxo-indane-1-carbonyl)-1,2,3,4-tetrahydro-isoquinolin-8-yl]-4-methoxy-phenyl}-acetic acid], 862 nM.

As a reminder, the IC50 is the point on the concentration scale where inhibition reaches its midpoint. A high value points to weaker potency in that assay.
